Reference: PubChem BioAssay (NCI)
Where “and” joins values, the source holds several entries; their conditions need not be identical. Equal values may be shown once.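 Tested at 5 concentrations; 48 h exposure; 96-well plates; endpoints linearly interpolated, else capped at highest concentration. GI50 marks 50% less growth. TGI: concentration producing complete growth inhibition.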

What was measured:
Experiment in all cases: NCI tumour cell line growth inhibition, 48 h
[1] = tested on: KM20L2 colon
[2] = tested on: DMS 273 small cell lung
[3] = tested on: SNB-78 CNS
[4] = tested on: DMS 114 small cell lung
[5] = tested on: LXFL 529 NSCLC
[6] = tested on: RXF-631 renal
[7] = tested on: SN12K1 renal
[8] = tested on: P388 leukemia
[9] = tested on: P388/ADR leukemia
[10] = tested on: HOP-18 NSCLC

Row | SMILES | TGI [1] | TGI [2] [µM] | TGI [3] | TGI [4] | TGI [5] | TGI [6] [µM] | TGI [7] [µM] | TGI [8] [µM] | TGI [9] [µM] | TGI [10] | GI50 [4]
1 | CCCN(CCCC(NC(C)=O)C(=O)NCc1ccccc1)C(=O)NC (stereo not drawn) | > 100 µM | > 100 | > 100 µM | > 100 µM | > 100 µM | > 100 |  |  |  |  | 
2 | COc1nc(SC)nc2c1cnn2C1OC(C(O)CO)C(OC)C1O (stereo not drawn) | > 100 µM | > 100 | > 100 µM | > 100 µM |  |  | > 84 | > 100 | > 100 | > 100 µM | 
3 | CC(=O)O/N=C/c1ncccc1OC(C)=O | > 100 µM | > 100 |  | > 100 µM | > 100 µM | > 100 |  |  |  | > 100 µM | 
4 | CCOC(=O)c1c(C)c2c(n1C)CCc1cn[nH]c1-2 | > 100 µM | > 100 | > 100 µM | > 100 µM |  |  | > 100 | > 100 | > 31.6 | > 100 µM | 
5 | Clc1ccc(SCCSCCCCCCCCCCSCCSc2ccc(Cl)cc2)cc1 | > 100 µM | > 100 | > 100 µM | > 100 µM |  | > 100 |  |  |  | > 100 µM | 
6 | NC(=O)N1N=C2c3ccccc3CC[C@@H]2C1c1ccccc1 (stereo partly drawn) | > 100 µM | > 100 | > 100 µM | > 100 µM | > 100 µM |  |  |  |  |  | 
7 | CCCn1c(SCC)c2ccccc2c1-c1nc(F)nc(F)n1 | > 100 µM | > 100 | > 100 µM | > 100 µM | > 100 µM | > 100 |  |  |  |  | 
8 | COC(=O)C(CCCC1(c2ccccc2)OCCO1)C(C)=O (stereo not drawn) | > 100 µM | > 100 | > 100 µM |  | > 100 µM | > 100 |  |  |  | > 100 µM | 
9 | COc1cc2c(c(C)c1O)[C@H]1COc3ccccc3[C@H]1O2 | 63.9 µM | 20.5 | 80.7 µM | 47.6 µM | 31.1 µM | 29.8 |  |  |  | 35.6 µM | 
10 | COC(=O)C1=C(C(=O)OC)C2(OC(C)=O)c3ccccc3-c3ccccc3C12 (stereo not drawn) | 12.8 µM | 9.61 | 10.8 µM | 9.89 µM | 3.38 µM |  |  |  |  | 9.5 µM | 
11 | CSC(C1c2ccccc2N(C)C2=NC(=O)N(C)C(=O)C21Cl)S(=O)(=O)c1ccc(C)cc1 (stereo not drawn) | > 100 µM | 75 | > 100 µM | > 100 µM | 57.7 µM | > 100 |  |  |  | > 100 µM | 
12 | COC(OC)c1cccc2c1C(=O)CCC1(O)c3ccccc3C1C2 (stereo not drawn) |  | > 100 | > 100 µM | > 100 µM | > 100 µM |  |  |  |  | > 100 µM | 
13 | COc1cc(C2C(Cl)C(=O)N2NC(=O)c2ccccc2O)ccc1O (stereo not drawn) |  | > 100 | > 100 µM | > 100 µM | > 100 µM |  |  |  |  | > 100 µM | 
14 | O=C1C(CN2CCCCC2)CCCC1CN1CCCCC1 (stereo not drawn) | 17.8 µM and 22.8 µM | > 100 | 47.6 µM and 44.8 µM | 18.7 µM and 79.4 µM | 29.3 µM and 28.9 µM |  |  |  |  | 28.5 µM and 30.9 µM | 7.38 µM and 27.4 µM
15 | COC1=CC(=O)[C@H]2[C@H](C)C(c3ccccc3)[C@@]2(C)C1=O (stereo partly drawn) |  | > 100 | > 100 µM |  | > 100 µM |  |  |  |  |  | 
16 | Nc1nc(SCCNC(=O)CCc2ccc(O)cc2)nc2c1ncn2C1OC(CO)C(O)C1O (stereo not drawn) | > 203 µM | > 203 | > 203 µM | > 203 µM |  |  |  |  |  | > 203 µM | 
17 | CC1=C2C(=O)[C@H]3[C@@H](CC=C4C[C@@H](O)CC[C@@]43C)[C@@H]2CC[C@]12O[C@@H]1C[C@H](C)CN[C@H]1[C@H]2C | 93.2 µM | 48.5 | 39.8 µM | 41.5 µM | 33.7 µM | 50 |  |  |  | 31.3 µM | 
